Legend:
[1] = target: Mitogen-activated protein kinase kinase kinase kinase 4 (Homo sapiens) (UniProt O95819); assay: Inhibition of human HGK catalytic domain expressed in baculovirus assessed as substrate phosphorylation using fluorescence-labelled peptides as substrate at 9 uM after 90 mins by microfluidic peptide phosphorylation assay
[2] = target: Ribosomal protein S6 kinase alpha-1 (Homo sapiens) (UniProt Q15418); details: 9 uM
Description: Inhibition of human full length RSK1 expressed in baculovirus assessed as substrate phosphorylation using fluorescence-labelled peptides as substrate at 9 uM after 90 mins by microfluidic peptide phosphorylation assay

[3] = target: Serine/threonine-protein kinase MARK1 (Homo sapiens) (UniProt Q9P0L2); assay: Inhibition of human full length MARK1 expressed in baculovirus assessed as substrate phosphorylation using fluorescence-labelled peptides as substrate at 420 uM after 90 mins by microfluidic peptide phosphorylation assay
[4] = target: T1, Serine/threonine-protein kinase BRSK1 (Homo sapiens) (UniProt Q8TDC3); assay: Inhibition of human full length BRSK1 expressed in baculovirus assessed as substrate phosphorylation using fluorescence-labelled peptides as substrate at 0.2 uM after 90 mins by microfluidic peptide phosphorylation assay
T1 sequence (whole entry): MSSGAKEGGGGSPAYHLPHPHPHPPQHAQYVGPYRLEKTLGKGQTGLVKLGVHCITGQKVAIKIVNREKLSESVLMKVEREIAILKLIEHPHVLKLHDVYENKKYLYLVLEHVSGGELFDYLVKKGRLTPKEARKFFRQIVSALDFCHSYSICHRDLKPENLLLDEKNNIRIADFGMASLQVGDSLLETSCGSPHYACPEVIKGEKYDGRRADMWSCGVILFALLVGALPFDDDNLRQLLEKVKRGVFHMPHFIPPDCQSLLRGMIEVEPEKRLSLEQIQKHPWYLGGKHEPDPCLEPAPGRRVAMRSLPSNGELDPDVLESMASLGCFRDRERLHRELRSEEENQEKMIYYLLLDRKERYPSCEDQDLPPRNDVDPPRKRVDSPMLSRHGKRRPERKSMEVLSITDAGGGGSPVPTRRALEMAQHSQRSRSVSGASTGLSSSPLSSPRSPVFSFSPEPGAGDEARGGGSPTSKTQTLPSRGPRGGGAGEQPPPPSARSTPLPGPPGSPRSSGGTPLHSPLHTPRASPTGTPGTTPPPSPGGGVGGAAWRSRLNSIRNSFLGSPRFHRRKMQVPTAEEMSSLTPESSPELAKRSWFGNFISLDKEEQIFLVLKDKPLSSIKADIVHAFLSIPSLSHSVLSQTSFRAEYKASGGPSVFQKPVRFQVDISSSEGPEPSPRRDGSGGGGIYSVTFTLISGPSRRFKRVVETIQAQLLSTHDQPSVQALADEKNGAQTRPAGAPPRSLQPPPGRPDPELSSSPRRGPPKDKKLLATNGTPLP

[5] = tested on: T2, Receptor-type tyrosine-protein kinase FLT3 (Homo sapiens), P36888 [D835Y]; assay: Inhibition of human FLT3 D835Y mutant catalytic domain expressed in baculovirus assessed as substrate phosphorylation using fluorescence-labelled peptides as substrate at 2 uM after 90 mins by microfluidic peptide phosphorylation assay
T2 sequence (whole entry): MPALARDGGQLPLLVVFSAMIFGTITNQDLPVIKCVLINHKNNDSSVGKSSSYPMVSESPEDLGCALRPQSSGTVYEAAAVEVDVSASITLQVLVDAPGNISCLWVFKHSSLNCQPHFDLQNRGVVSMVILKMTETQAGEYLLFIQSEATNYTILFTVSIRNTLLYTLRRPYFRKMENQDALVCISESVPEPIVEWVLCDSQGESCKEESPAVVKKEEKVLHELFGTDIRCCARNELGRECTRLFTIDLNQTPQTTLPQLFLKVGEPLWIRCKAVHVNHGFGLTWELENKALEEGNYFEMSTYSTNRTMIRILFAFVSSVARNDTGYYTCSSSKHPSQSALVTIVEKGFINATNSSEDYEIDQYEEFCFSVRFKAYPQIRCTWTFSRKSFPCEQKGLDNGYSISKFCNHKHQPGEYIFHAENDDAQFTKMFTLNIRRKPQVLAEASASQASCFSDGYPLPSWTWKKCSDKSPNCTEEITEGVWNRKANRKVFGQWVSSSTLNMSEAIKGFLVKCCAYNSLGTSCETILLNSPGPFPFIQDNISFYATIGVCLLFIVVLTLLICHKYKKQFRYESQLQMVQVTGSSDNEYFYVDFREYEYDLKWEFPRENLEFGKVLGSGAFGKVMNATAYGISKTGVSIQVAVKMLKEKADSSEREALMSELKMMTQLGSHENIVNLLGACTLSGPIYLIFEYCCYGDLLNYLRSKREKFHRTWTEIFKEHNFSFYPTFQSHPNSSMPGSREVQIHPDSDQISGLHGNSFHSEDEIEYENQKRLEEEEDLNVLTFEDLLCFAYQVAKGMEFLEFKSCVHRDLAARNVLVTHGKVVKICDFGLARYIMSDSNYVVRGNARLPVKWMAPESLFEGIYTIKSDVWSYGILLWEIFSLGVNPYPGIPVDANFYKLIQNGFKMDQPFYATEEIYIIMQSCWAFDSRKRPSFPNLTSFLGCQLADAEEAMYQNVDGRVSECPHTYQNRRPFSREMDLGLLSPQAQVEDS

[6] = target: Protein kinase C theta type (Homo sapiens) (UniProt Q04759); assay: Inhibition of human truncated PKC theta expressed in baculovirus assessed as substrate phosphorylation using fluorescence-labelled peptides as substrate at 8 uM after 90 mins by microfluidic peptide phosphorylation assay
[7] = target: T3, Mitogen-activated protein kinase 13 (Homo sapiens) (UniProt O15264); assay: Inhibition of human full length p38 delta expressed in Escherichia coli cell assessed as substrate phosphorylation using fluorescence-labelled peptides as substrate at 1000 uM after 90 mins by microfluidic peptide phosphorylation assay
T3 sequence (whole entry): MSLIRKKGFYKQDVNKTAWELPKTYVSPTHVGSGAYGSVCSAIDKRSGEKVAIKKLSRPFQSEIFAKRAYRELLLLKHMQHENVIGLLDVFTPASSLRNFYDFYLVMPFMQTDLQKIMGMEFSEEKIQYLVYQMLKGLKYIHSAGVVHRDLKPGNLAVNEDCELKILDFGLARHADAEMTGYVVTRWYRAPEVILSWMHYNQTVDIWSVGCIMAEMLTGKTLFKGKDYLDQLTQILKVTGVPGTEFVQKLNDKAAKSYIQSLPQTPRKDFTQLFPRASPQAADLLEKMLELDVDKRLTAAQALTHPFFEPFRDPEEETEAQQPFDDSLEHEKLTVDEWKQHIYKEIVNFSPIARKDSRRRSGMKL

[8] = target: Tyrosine-protein kinase Lck (Homo sapiens) (UniProt P06239); assay: Inhibition of human full length LCK expressed in baculovirus assessed as substrate phosphorylation using fluorescence-labelled peptides as substrate at 1000 uM after 90 mins by microfluidic peptide phosphorylation assay
[9] = tested on: Tyrosine-protein kinase ABL1 (Homo sapiens), P00519 [T315I]; assay: Inhibition of human truncated ABL T315I mutant expressed in baculovirus assessed as substrate phosphorylation using fluorescence-labelled peptides as substrate at 1000 uM after 90 mins by microfluidic peptide phosphorylation assay

Chain of Tyrosine-protein kinase Lck (Homo sapiens) (P06239 2-509 limits assumed): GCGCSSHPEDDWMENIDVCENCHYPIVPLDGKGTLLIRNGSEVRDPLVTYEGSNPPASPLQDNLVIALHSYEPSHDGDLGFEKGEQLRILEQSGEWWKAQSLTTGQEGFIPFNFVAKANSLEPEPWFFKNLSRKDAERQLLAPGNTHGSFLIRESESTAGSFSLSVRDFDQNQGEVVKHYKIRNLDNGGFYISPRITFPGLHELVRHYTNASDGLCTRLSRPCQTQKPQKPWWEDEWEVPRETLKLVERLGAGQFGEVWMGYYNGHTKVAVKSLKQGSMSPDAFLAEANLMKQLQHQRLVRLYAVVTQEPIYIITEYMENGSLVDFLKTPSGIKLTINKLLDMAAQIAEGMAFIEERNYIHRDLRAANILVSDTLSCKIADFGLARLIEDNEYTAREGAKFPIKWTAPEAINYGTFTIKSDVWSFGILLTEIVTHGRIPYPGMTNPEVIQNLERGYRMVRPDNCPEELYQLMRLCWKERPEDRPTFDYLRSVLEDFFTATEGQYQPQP
Chain of Ribosomal protein S6 kinase alpha-1 (Homo sapiens) (Q15418 whole entry): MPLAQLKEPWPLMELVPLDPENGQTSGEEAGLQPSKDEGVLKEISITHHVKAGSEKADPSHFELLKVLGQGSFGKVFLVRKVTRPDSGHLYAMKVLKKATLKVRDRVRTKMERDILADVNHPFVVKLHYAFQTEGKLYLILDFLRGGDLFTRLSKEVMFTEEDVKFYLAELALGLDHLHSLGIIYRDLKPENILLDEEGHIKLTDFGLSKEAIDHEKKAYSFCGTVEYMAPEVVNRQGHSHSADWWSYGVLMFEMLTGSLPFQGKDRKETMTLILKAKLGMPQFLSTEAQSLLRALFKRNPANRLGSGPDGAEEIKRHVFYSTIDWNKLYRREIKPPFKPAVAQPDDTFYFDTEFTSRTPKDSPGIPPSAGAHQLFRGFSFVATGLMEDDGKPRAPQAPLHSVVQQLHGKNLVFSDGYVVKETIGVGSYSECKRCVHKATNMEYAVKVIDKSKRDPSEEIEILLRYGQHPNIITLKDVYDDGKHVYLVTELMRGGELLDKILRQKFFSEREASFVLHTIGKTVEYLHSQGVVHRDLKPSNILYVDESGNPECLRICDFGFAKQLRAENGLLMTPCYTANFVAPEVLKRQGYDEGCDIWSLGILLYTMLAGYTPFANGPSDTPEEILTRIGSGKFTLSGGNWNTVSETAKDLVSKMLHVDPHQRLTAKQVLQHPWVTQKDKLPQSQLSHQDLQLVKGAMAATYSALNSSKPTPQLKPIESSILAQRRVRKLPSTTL
Chain of Mitogen-activated protein kinase kinase kinase kinase 4 (Homo sapiens) (O95819 2-1239 limits assumed): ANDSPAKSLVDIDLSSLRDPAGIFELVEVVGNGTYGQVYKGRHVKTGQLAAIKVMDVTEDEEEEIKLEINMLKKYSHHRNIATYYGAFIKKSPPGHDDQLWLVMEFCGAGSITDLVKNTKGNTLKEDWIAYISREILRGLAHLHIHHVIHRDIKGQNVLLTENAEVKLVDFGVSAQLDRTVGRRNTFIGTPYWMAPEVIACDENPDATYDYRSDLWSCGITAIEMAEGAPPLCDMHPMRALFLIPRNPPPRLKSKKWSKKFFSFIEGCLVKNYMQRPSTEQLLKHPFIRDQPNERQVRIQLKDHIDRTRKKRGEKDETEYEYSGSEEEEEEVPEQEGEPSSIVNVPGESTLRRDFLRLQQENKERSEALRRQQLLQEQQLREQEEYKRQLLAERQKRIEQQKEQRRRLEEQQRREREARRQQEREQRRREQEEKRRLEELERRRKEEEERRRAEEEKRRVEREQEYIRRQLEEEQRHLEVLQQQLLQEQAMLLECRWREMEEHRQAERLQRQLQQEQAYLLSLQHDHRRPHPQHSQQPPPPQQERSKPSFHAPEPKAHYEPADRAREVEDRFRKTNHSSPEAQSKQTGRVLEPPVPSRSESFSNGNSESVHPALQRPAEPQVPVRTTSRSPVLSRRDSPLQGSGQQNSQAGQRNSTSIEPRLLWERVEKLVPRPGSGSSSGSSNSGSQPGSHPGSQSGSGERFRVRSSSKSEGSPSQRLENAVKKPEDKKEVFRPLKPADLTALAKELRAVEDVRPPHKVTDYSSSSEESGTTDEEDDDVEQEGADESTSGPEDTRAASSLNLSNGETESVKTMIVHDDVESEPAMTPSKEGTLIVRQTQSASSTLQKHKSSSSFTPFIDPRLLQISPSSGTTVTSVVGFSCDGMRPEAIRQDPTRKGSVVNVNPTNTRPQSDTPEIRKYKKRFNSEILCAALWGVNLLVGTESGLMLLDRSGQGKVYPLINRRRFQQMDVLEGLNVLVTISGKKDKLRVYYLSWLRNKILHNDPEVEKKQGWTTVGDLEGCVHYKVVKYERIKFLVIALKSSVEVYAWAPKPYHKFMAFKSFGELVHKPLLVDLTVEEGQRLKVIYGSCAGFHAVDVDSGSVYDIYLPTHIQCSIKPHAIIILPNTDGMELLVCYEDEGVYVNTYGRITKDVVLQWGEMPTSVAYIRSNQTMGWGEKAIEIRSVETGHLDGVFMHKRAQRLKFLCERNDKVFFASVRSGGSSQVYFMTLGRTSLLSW
Chain of Protein kinase C theta type (Homo sapiens) (Q04759 whole entry, looked up, the tested form may be a part): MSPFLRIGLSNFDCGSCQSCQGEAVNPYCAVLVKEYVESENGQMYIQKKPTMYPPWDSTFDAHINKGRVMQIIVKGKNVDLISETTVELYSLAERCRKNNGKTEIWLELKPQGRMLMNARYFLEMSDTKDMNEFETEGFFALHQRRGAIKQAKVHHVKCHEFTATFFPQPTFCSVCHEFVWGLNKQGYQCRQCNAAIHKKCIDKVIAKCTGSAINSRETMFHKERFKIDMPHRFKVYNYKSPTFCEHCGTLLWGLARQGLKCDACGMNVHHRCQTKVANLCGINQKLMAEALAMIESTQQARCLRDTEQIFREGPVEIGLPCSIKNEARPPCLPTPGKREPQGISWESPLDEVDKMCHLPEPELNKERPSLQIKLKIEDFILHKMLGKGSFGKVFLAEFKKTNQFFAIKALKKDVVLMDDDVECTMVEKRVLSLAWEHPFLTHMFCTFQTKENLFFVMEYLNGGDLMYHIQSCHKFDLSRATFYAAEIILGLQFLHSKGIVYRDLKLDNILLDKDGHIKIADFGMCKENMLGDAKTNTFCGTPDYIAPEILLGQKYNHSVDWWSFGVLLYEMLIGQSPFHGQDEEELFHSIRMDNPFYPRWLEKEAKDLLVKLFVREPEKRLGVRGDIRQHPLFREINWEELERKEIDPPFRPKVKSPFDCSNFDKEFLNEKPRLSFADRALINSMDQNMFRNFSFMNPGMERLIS
Chain of Serine/threonine-protein kinase MARK1 (Homo sapiens) (Q9P0L2 whole entry, looked up): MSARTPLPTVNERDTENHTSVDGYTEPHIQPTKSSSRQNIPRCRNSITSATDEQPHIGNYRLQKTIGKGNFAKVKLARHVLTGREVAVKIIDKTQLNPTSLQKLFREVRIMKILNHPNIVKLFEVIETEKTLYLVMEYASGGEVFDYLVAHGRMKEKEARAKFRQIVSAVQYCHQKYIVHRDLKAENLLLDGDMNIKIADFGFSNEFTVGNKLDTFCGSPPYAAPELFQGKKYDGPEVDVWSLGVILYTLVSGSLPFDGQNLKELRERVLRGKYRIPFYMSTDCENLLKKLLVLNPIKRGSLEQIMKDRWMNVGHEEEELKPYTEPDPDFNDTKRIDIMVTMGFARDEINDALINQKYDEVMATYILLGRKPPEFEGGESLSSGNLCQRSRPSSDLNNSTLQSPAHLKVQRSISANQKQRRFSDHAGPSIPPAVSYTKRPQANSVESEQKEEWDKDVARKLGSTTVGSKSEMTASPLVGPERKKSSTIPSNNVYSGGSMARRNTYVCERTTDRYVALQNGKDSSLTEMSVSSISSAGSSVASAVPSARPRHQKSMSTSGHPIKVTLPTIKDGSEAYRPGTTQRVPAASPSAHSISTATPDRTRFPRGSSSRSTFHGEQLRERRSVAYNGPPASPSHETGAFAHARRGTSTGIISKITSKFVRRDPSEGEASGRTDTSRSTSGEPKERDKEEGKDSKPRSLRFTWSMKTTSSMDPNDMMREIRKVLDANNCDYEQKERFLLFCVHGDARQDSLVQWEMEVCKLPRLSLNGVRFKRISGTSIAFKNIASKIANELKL

## NCC1CN(c2ncnc3[nH]c4cnccc4c23)CCO1 (centres undefined)
[1]
  inhibition: 54.5%
[2]
  inhibition: 91%

## c1nc(N2CCOCC2)c2nc[nH]c2n1
[3]
  inhibition: 4.5%

## Clc1ccc(C2(c3ccc(-c4ncnc5[nH]cnc45)cc3)CCNCC2)cc1
[4]
  inhibition: 11%

## NC1CCN(c2ncnc3[nH]ccc23)CC1
[5]
  inhibition: 0%

## NCC1CCN(c2ncnc3[nH]ccc23)CC1
[6]
  inhibition: 67.5%

## c1cnc2[nH]ccc2c1
[7]
  inhibition: 51%
[8]
  inhibition: 29%
[9]
  inhibition: 58%

From ChEMBL document CHEMBL3132769, “Fragment growing to retain or alter the selectivity of anchored kinase hinge-binding fragments” (Medchemcomm, 2014)
